This note sets out measurements from US20240115530A1, “ADMINISTRATION OF BAIBA TO INCREASE BENEFIT OF LOSING WEIGHT OF INTERMITTENT FASTING” (NANJING NUTRABUILDING BIO-TECH CO., LTD., priority 2021, published 2024).

What all share (format): in vivo, C57BL/6 male mice
Test [1] is described as follows: Serum insulin and leptin by ELISA in HFD-fed obese mice. The following applies: 150 mg/kg daily per oral, end of treatment period, with or without EODF, vs same regimen without L-BAIBA. The text has this:
(§1) Each study group consisted of ten animals, and treatment details of the individual study groups are given below: • Group A (GA, NC): Normal mice, maintained on normal diet for 11 weeks, receiving neither EODF nor L-BAIBA treatment. • Group B1 (GB1, HFD): Obese mice, maintained on high fat diet (HFD) for 11 weeks, receiving neither EODF nor L-BAIBA treatment. • Group B2 (GB2, HFD+EODF): Obese mice, maintained on HFD for 11 weeks, receiving only EODF and no L-BAIBA treatment. • Group B3 (GB3, HFD+BAIBA): Obese mice, maintained on HFD for 11 weeks, receiving only L-BAIBA treatment and no EODF. • Group B4 (GB4, HFD+EODF+BAIBA): Obese mice, maintained on HFD for 11 weeks, receiving L-BAIBA treatment and EODF combination.
(§2) L-BAIBA was administered daily via per oral route according to a level of 150 mg/kg body weight. Animals not receiving L-BAIBA were given orally with ultrapure water.
(§3) Intermittent fasting model: HFD fed male mice in groups at 8 weeks of age were randomly assigned into either ad libitum, or every-other-day-fasting (EODF) groups on a per cage basis. All cage bedding was changed to paper bedding for the duration of the model. […]
Serum levels of insulin and leptin were determined at the end of the treatment period by standard ELISA methods. […]
A general note: An ELISA detects its analyte on a solid surface through an enzyme-linked reagent.

Test [2] can be described thus: Blood lipid biochemistry (TG, TCHO, LDL, VLDL) in HFD-fed obese mice. The conditions noted are these: 150 mg/kg daily per oral, end of study, with or without EODF, vs same regimen without L-BAIBA.
Excerpt: as §1, §2
Intermittent fasting model: HFD fed male mice in groups at 8 weeks of age were randomly assigned into either ad libitum, or every-other-day-fasting (EODF) groups on a per cage basis. All cage bedding was changed to paper bedding for the duration of the model. Mice in the EODF group had total deprivation of food and ad libitum access to water from 1200 h-1200 h on alternate days with ad libitum food and water access. EODF cages were changed upon induction of fasting. Ad libitum control mice cages were changed every other day with fresh food provided.
50 C57BL/6 male mice aged about 8 weeks, are randomly assigned to five study groups (GA, GB1, GB2, GB3, GB4) of ten mice each (two cages, 1 cage, n=5 per condition).
The same procedures were conducted as above-discussed Example 1.
At the end of the study, blood was collected from all test groups and a various clinical parameter were determined: triglyceride (TG), total cholesterol (TCHO), low-density lipoprotein (LDL) and very low-density lipoprotein (VLDL). FIG. 2a-2d are the results of TG, TCHO, LDL and VLDL in all test groups, respectively. […] This effect persists for as long as the test protocol is continued.

Test [3] can be described thus: Blood glucose and oral glucose tolerance test (OGTT) in HFD-fed obese mice. The following applies: 150 mg/kg daily per oral, vs same regimen without L-BAIBA.
Excerpt: as §1, §2, §3
Glucose levels in blood were measured weekly (week 12-19) on the starting day of every week before the day's EODF and L-BAIBA dosing activities. […]

Test [4] in a line: Body weight reduction in HFD-fed obese mice with or without EODF. The conditions noted are these: 150 mg/kg daily per oral, 8-week treatment, vs same regimen without L-BAIBA. As to the method: 50 C57BL/6 male mice aged about 8 weeks, are randomly assigned to five study groups (GA, GB1, GB2, GB3, GB4) of ten mice each (two cages, 1 cage, n=5 per condition). Each animal's body weight is measured by a weight scale and recorded.
The total experimental time is 19 weeks, including two periods: an eleven-week induction period and a subsequent eight-week treatment period.
as §1
L-BAIBA was administered daily via per oral route according to a level of 150 mg/kg body weight. […]
Each mouse's body weight is measured weekly during the study at 1200 h. FIG. 1 is the average body weight of mice in all test groups (Body weight were recorded from the beginning of the experiment). […]

With `C[C@@H](CN)C(=O)O` [L-BAIBA, L-β-aminoisobutyric acid], in test [1], the “insulin resistance (serum insulin)” value was “improved” and the “leptin resistance (serum leptin)” value is given as “improved leptin resistance”. In test [2], the “low-density lipoprotein (LDL) level in blood” value is given as “lower levels”, the “total cholesterol (TCHO) level in blood” value is “lower levels”, the “triglyceride (TG) level in blood” value was “lower levels” and the “very low-density lipoprotein (VLDL) level in blood” value is reported as “lower levels”. Also, in test [3] (OGTT after the treatment period, with or without EODF), the “glucose tolerance (OGTT)” value is reported as “better glucose tolerance”. Besides, in test [3] (measured weekly week 12-19, with or without EODF), the blood glucose level result is recorded as “greater reduction in blood glucose level”. In test [4], the body weight result is “greater reduction in body weight”.
